Series [1] deals with HUVEC. As to the kind of experiment: MTT assay with treated HUVEC (antiproliferative activity). In kind it is cell-based, Human. The settings on record: for inhibition of VEGF stimulated proliferation (MTT): VEGF stimulated HUVEC, FIG. 5; for inhibition of VEGF stimulated proliferation (MTT) / antiproliferative effect (MTT), in words / % growth (MTT): 48 hours; for antiproliferative effect (MTT), in words: concentration-response; for % growth (MTT): at concentrations as low as 25 μg/ml. As for the experimental part:
The antiproliferative activity of bromelain, nattokinase and papain and their mixtures was assessed using an 3-(4,5-dimethylthiazol-2-yl)-2,5-diphenyltetrazoliumbromide (MTT) assay. […] Cells were incubated further 48 hours at 37° C./95% humidity. The MTT Assay was carried out using an EZ4U MTT Kit (Biomedica, Austria; according to the instructions of the manufacturer). Optical density was measured at 450 nm with a reference wavelength of 620 nm. Results are expressed as % proliferation with 100% being the proliferation of the VEGF treated control.
To assess a possible antiproliferative activity of Rutosid an 3-(4,5-dimethylthiazol-2-yl)-2,5-diphenyltetrazoliumbromide (MTT) Assay was used. […] Cells were incubated further 48 hours at 37° C./95% humidity. The MTT-Assay was carried out using a EZ4U MTT Kit (Biomedica, Austria) according to the instructions of the manufacturer) Optical density was measured at 450 nm with a reference wavelength of 620 nm. Results are expressed as % proliferation with 100% being the proliferation of the VEGF treated control.
Background: Formazan colour is commonly taken as a measure of viable cells.

Series [2] deals with HUVEC.
Procedure: (§1) The antiproliferative activity of bromelain, nattokinase and papain was assessed using a Lactate Dehydrogenase (LDH) Assay. Human Umbilical Vein Endothelial Cells (HUVEC) from semi-confluent cultures were harvested by treatment with trypsin, seeded at a density of 2500 cells/well into 96-well microplates, previously coated with human fibronectin. In oder to allow proper attachment, cells were incubated for 24 hours in Endothelial Basal medium 2MV (Cambrex Biochemicals) containing 10% Fetal Calf Serum, 60 μg/ml Endothelial cell Growth Supplement, hrEGF, hrFGF2, hrIGF, hrVEGF, Ascorbic Acid and Heparin. After attachment, cells were starved by incubation at 37° C./95% humidity in Medium 199+10% Fetal Calf Serum (FCS) without growth factors. After 24 hours, the supernatant was replaced by Medium 199 containing 10% FCS, VEGF and varying concentrations of the enzymes. After an incubation period of 48 hours, supernatant was harvested and an LDH assay was performed according to the instructions of the manufacturer (Promega, Germany): 50 μl aliquots from all wells were transferred to a fresh 96-well flat-bottom (enzymatic assay) plate. The Assay Buffer was added to the Substrate Mix and mixed gently. 50 μl of reconstituted Substrate Mix was added to each well. The plate was incubated for 30 minutes at room temperature. 50 μl of Stop Solution was added to each well. Within one hour, optical density was measured at 490 nm with a reference wavelength of 620 nm. Results are expressed as % untreated control.
(§2) To test a possible cytotoxic activity of rutosid an Lactate Dehydrogenase (LDH) Assay was used. Human Umbilical Vein Endothelial Cells (HUVEC) from semi-confluent cultures were harvested by treatment with trypsin, seeded at a density of 2500 cells/well into 96-well microplates, previously coated with human fibronectin. In oder to allow proper attachment, cells were incubated for 24 hours in Endothelial Basal medium 2MV (Cambrex Biochemicals) containing 10% Fetal Calf Serum, 60 μg/ml Endothelial cell Growth Supplement, hrEGF, hrFGF-2, hrIGF, hrVEGF, ascorbic acid and heparin. After attachment, cells were starved by incubation at 37° C./95% humidity in Medium 199+10% Fetal Calf Serum (FCS) without growth factors. After 24 hours, the supernatant was replaced by Medium 199 containing 10% FCS, VEGF and varying concentrations of the enzymes. After an incubation period of 48 hours, supernatant was harvested and an LDH assay was performed according to the instructions of the manufacturer (Promega, Germany): 50 μl aliquots from all wells where transferred to a fresh 96-well flat-bottom (enzymatic assay) plate. […] Within one hour, optical density was measured at 490 nm with a reference wavelength of 620 nm. Results are expressed as % untreated control.
For series [3], the system named is HUVEC. As to the kind of experiment: Tube formation assay on Matrigel (antiangiogenic activity). In kind it is cell-based, Human. The settings on record: for inhibition of VEGF induced tube formation: FIG. 3, FIG. 7 right; for ability to inhibit or prevent angiogenesis: general statement on proteases of mammalian origin; for inhibition of spontaneous tube formation: no VEGF, FIG. 7 left. As for the experimental part:
Methods: Antiangiogenic activity was assessed using a tube formation assay. Growth factor reduced Matrigel (Becton Dickinson, Vienna) was thawed at a temperature of 4° C. 50 μl per well were pipetted into the wells of a 96 well microtiter plate. The plate was left at 4° C. for 24 hours. Prior to the experiment, the plate was incubated for 30-60 minutes at 37° C. to solidify the gel. HUVEC were harvested by treatment with trypsin and seeded into Matrigel coated 96 well microplates at a density of 20.000 cells per well in Endothelial Growth Medium 2(MV) (Lonza, Brussels) supplemented with ascorbic acid and hydrocortisone according to the instructions of the manufacturer as well as […] heparin and 1% Fetal Bovine Serum. Drugs and VEGF were added to the desired concentrations. After further 16 hrs to 18, wells were photographed. The total length of tubes was determined using the ImageJ Software, measured by the Neuron Length Determination Plugin.

In series [4] the test system is HUVEC. As to the kind of experiment: LDH release into supernatant of treated HUVEC (toxicity test). To be noted: up to a level of including 25 μg/ml; 2 days of incubation. (In general: Release of lactate dehydrogenase indicates damage to the cell membrane.)
Procedure: as §1, §2

Entries after “also recorded” stand apart in the source; their conditions may differ.

Take `C[C@@H]1O[C@@H](OC[C@H]2O[C@@H](Oc3c(-c4ccc(O)c(O)c4)oc4cc(O)cc(O)c4c3=O)[C@H](O)[C@@H](O)[C@@H]2O)[C@H](O)[C@H](O)[C@H]1O` [Rutosid]: the figures for the “inhibition of VEGF stimulated proliferation (MTT)” value in the series on HUVEC [1] and in the series on HUVEC [1] (listed as rutosid) were “No inhibition of proliferation” and “does not inhibit”, respectively. In addition, the “toxicity in HUVEC (LDH), overall” value in the series on HUVEC [2] was “negligible”.

On to chymotrypsin [reference compound], for which, in the series with HUVEC [3], the “inhibition of VEGF induced tube formation” value was “but not chymotrypsin or trypsin inhibited formation of tubes”, the “ability to inhibit or prevent angiogenesis” value is “not able to inhibit or prevent angiogenesis” and the “inhibition of spontaneous tube formation” value is recorded as “but not chymotrypsin or trypsin inhibited formation of tubes”.

Regarding ficin, in the series with HUVEC [3], the “inhibition of VEGF induced tube formation” value was “significant decrease; also recorded: inhibited formation of tubes almost to the same extend as in untreated HUVEC” and the “inhibition of spontaneous tube formation” value is “inhibited formation of tubes”.

As to trypsin [reference compound], in the series with HUVEC [3], the “inhibition of VEGF induced tube formation” value was “but not chymotrypsin or trypsin inhibited formation of tubes”, the “ability to inhibit or prevent angiogenesis” value was “not able to inhibit or prevent angiogenesis” and the “inhibition of spontaneous tube formation” value is reported as “but not chymotrypsin or trypsin inhibited formation of tubes”.

serrapeptase: in the series on HUVEC [3], the “inhibition of VEGF induced tube formation” value is “significant decrease; also recorded: inhibited formation of tubes almost to the same extend as in untreated HUVEC” and the “inhibition of spontaneous tube formation” value was “inhibited formation of tubes”.

Consider Nattokinase, for which the “antiproliferative effect (MTT), in words” value in the series on HUVEC [1] is on record as “clear antiproliferative effect”. Besides, in the series with HUVEC [3], the “inhibition of VEGF induced tube formation” value is listed as “significant decrease; also recorded: inhibited formation of tubes almost to the same extend as in untreated HUVEC” and the “inhibition of spontaneous tube formation” value was “inhibited formation of tubes”. Further, in the series with HUVEC [4], the “toxic effects on HUVEC (LDH release)” value is “did not show toxic effects”.

For the molecule Bromelain, the “% growth (MTT)” value in the series with HUVEC [1] (100% = VEGF treated control) worked out at 75%. For the same molecule, the “antiproliferative effect (MTT), in words” value in the series on HUVEC [1] is reported as “clear antiproliferative effect”. In the series with HUVEC [3], the “inhibition of VEGF induced tube formation” value is recorded as “inhibited formation of tubes almost to the same extend as in untreated HUVEC” and the “inhibition of spontaneous tube formation” value was “inhibited formation of tubes”. For the same molecule, the “inhibition of VEGF induced tube formation” value in the series on HUVEC [3] (listed as bromelain) is “significant decrease”. In the series with HUVEC [4], the “toxic effects on HUVEC (LDH release)” value is reported as “did not show toxic effects”.

B1: Papain (protein, UniProt P00784 134-345, looked up)
Papain: IPEYVDWRQKGAVTPVKNQGSCGSCWAFSAVVTIEGIIKIRTGNLNEYSEQELLDCDRRSYGCNGGYPWSALQLVAQYGIHYRNTYPYEGVQRYCRSREKGPYAAKTDGVRQVQPYNEGALLYSIANQPVSVVLEAAGKDFQLYRGGIFVGPCGNKVDHAVAAVGYGPNYILIKNSWGTGWGENGYIRIKRGTGNSYGVCGLYTSSFYPVKN
Take B1: the “% growth (MTT)” value in the series on HUVEC [1] (100% = VEGF treated control) is 75%. Further, in the series with HUVEC [1] (combinations of bromelain, nattokinase and papain in presence of VEGF, 100% = VEGF treated control), the “% Proliferation” value amounted to 75.45%. Also, in the series with HUVEC [1], the “antiproliferative effect (MTT), in words” value is “clear antiproliferative effect”. Besides, in the series on HUVEC [3], the “inhibition of VEGF induced tube formation” value is reported as “significant decrease; also recorded: inhibited formation of tubes almost to the same extend as in untreated HUVEC” and the “inhibition of spontaneous tube formation” value is “inhibited formation of tubes”. The “% tube formation” value with HUVEC [3] (in presence of VEGF, 100% = samples treated with VEGF only) was 60.14%. Also, the “toxic effects on HUVEC (LDH release)” value in the series on HUVEC [4] is “did not show toxic effects”.
